Assay results as given in paper PMC4698308, “A new amino acid substitution (Ala-205-Phe) in acetolactate synthase (ALS) confers broad spectrum resistance to ALS-inhibiting herbicides” (Planta, 2015).
Read-outs that look alike come from different tables or passages of the source.

Key:
[1] = tested on: annual bluegrass (Poa annua L.); test: Whole plant confirmation of target-site resistance (visual control and dry biomass 28 days after treatment); format: in vivo
Experimental: Progeny of all POAAN-R3 plants subjected to genetic sequencing (RP1–RP8) were surface seeded into separate 10.2 × 10.2 cm greenhouse pots (Dillen Products/Myers Industries, Inc. Middlefield, OH, USA.) filled with a peat moss growing medium (ProMix BX Mycorrhizae. Premier Tech Horticulture, Quakertown, PA, USA) on 5 January 2015. The susceptible annual bluegrass population (S) included in our sequencing analysis was also seeded in the same fashion.
After seeding, pots were placed inside a growth chamber (Conviron A1000. Controlled Environments Inc, Hendersonville, NC) configured to provide 14 h day at 19 °C and a 10 h night at 10 °C. Light intensity inside the chamber averaged 296 μmol m^−2 s^−1. Irrigation was applied to each pot daily using distilled water and a misting nozzle. Annual bluegrass emergence was first noted on 16 January 2015. Plants remained inside the growth chamber until 26 January 2015. On this date, seedlings of each plant (RP1–RP8, S) were transplanted into individual 164 cm^3 plastic conical containers (SC10 Super Cell Cone-tainer. Stuewe and Sons. Tangent, OR 97389) filled with Sequatchie silt loam (fine-loamy, siliceous, semiactive, thermic humic Hapludult) measuring 6.2 in soil pH and 2.1 % in organic matter content. Transplants were replicated such that 32 plastic conical containers were created for each annual bluegrass plant analyzed in previous experiments (RP1–RP8, S). Immediately after transplanting, plastic conical containers were placed in a glasshouse located at the University of Tennessee (Knoxville, TN, USA; 35.56, 83.56). Peak light intensity in this glasshouse averaged 714 μmol m^−2 s^−1 with day/night temperatures averaging 27/17 °C. Irrigation was applied daily using an overhead misting system and plants were not clipped prior to initiating this study.
Plants were allowed to acclimate to this glasshouse environment for 10 days prior to being treated with foramsulfuron (Revolver. Bayer Environmental Sciences. Research Triangle Park, NC, USA) at 29 g ha^−1, imazamox (Clearcast. BASF Corporation. Research Triangle Park, NC) at 140 g ha^−1, or simazine (Princep 4L. Syngenta Professional Products. Greensboro, NC) at 1120 g ha^−1. Per label recommendations, imazamox and simazine treatments included a non-ionic surfactant (Activator-90. Loveland Products Inc. Greeley, CO, USA) at 0.25 % v/v. All treatments were applied in an enclosed spray chamber (Generation III track sprayer. DeVries Manufacturing, Hollandale, MN, USA) using a water carrier at 215 L ha^−1 through an 8004 EVS nozzle (TeeJet, Technologies, Spraying Systems Co., Glendale Heights, IL, USA). These herbicide treatments were selected to confirm results of genetic sequencing that RP1–RP8 were resistant to sulfonylurea, imidazolinone, and photosystem II inhibiting herbicides. A non-treated control treatment was included with each resistant (RP1–RP8) and susceptible (S) plant for comparison. Herbicides were applied on 5 February 2015 when plants were at a two-to-three leaf stage, prior to annual bluegrass tiller formation.
Annual bluegrass control was visually assessed on a 0 (i.e., no control) to 100 % (i.e., complete kill) scale relative to the non-treated 28 days after treatment. After all control data had been collected, aboveground biomass was harvested from each plastic conical container at the soil line using scissors, dried at 100 °C for 3 days, and weighed.
Treatments were arranged as a 9 × 4 factorial with nine plant selections (i.e., RP1–RP8, S) and four herbicide treatments (i.e., foramsulfuron, imazamox, simazine, non-treated) in a completely randomized design with four replications and repeated in time and space during February 2015. Plants were the same age during both experimental runs.

[2] = tested on: annual bluegrass population POAAN-R3; set-up: method as in Brosnan et al. [2015]; settings: ref Brosnan et al. [2015], cited from earlier work
[3] = tested on: annual bluegrass (Poa annua L.); test: Whole plant non-target site resistance experiment with P450 inhibitors malathion or PBO (control 21 days after treatment); format: in vivo; settings: for Annual bluegrass control S: susceptible (S)
Experimental: Additional experiments were conducted during March–April 2015 to determine if non-target site based mechanisms conferred resistance to ALS inhibitors in our annual bluegrass population, POAAN-R3. Plants (RP6, RP7, and S) were cultured in plastic conical containers as previously described and allowed to acclimate to the glasshouse for 18 days prior to initiating two experiments.
In the first experiment, resistant (RP6, RP7) and susceptible (S) plants were treated with foramsulfuron at 29 g ha^−1, trifloxysulfuron (Monument. Syngenta Professional Products. Greensboro, NC, USA) at 27.8 g ha^−1, imazaquin (Image. BASF Corporation. Research Triangle Park, NC) at 27.5 g ha^−1, or bispyribac-sodium (Velocity. Valent USA Corporation. Walnut Creek, CA, USA) at 70 g ha^−1. All herbicides were applied alone or in combination with either malathion (Spectrum Group. St. Louis, MO, USA) at 1000 g ha^−1 or piperonyl butoxide (Sigma Aldrich. St. Louis, MO, USA) at 2100 g ha^−1. Malathion and piperonyl butoxide (PBO) inhibit cytochrome P450 monooxygenases involved in metabolism of ALS inhibiting herbicides and are commonly used at the application rates tested herein to evaluate non-target site based resistance mechanisms in weeds (Burnet et al. [1994]; Christopher et al. [1992]; Yu and Powles [2014b]; Rao et al. [1995]). All herbicides were mixed in water carrier and included non-ionic surfactant at 0.25 % v/v. Malathion and PBO were mixed with methanol and de-ionized water (50:50) and applied 60 min prior to herbicide application using a previously described enclosed spray chamber on 13 February 2015.
Annual bluegrass control was visually assessed on a 0 (i.e., no control) to 100 % (i.e., complete kill) scale relative to the non-treated 21 days after treatment. After all control data had been collected, aboveground biomass was harvested from each plastic conical container at the soil line using scissors, dried at 100 °C, and weighed. Treatments were arranged as a 3 × 5 × 3 factorial with three plant selections (RP6, RP7, S), five herbicides (foramsulfuron, trifloxysulfuron, imazaquin, bispyribac-sodium, non-treated) and three P450 inhibitor treatments (malathion, PBO, non-treated) in a completely randomized design with four replications and repeated in separate glasshouses during February 2015.

[4] = target: T1, recombinant Arabidopsis thaliana ALS wild-type enzyme (WT—sensitive) (Arabidopsis thaliana, UniProt P17597); test: biochemical
T1 construct: Protein constructs contained an 85 amino acid N-terminal deletion (chloroplast transit peptide); Hexa-histidine tag (N); made in house
Experimental: (§1) Effects of SNPs identified in sequencing analysis on ALS activity were studied using A. thaliana. The ALS gene from A. thaliana and derivatives thereof were de novo synthesized and subcloned into pET-24d(+) (Life Technologies. Grand Island, NY, USA) using NcoI and XhoI restriction sites. Protein constructs contained an 85 amino acid N-terminal deletion (chloroplast transit peptide) and the addition of an N-terminal Hexa-histidine tag to facilitate purification.
(§2) Lysis was performed by at least two passes through a fluidizer, followed by centrifuging at 80000×g for 30 min at 4 °C. […] Fractions containing ALS protein were pooled and stored at −20 °C.
(§3) Inhibitors, purchased from Sigma as Pestanal standards (Sigma-Aldrich, Deisenhofen, Germany), were dissolved in DMSO and added to the reaction mixture. Inhibitors evaluated included imidazolinone, sulfonylurea, triazolopyrimidines, sulfonylamino-carbonyl- triazolinones, and pyrimidinyl (thio) benzoate herbicides. The reaction mixture was incubated at 30 °C for 60 min and stopped with 70 µl of H2SO4 (3 M). The reaction was then heated to 56 °C for 15 min to convert acetolactate into acetoin. […] For each inhibitor, resistance factors were calculated by dividing IC50 values for mutant and sensitive ALS.

[5] = tested on: recombinant Arabidopsis thaliana ALS variant A205V; format: biochemical; settings: IC50 mutant divided by IC50 sensitive ALS; max inhibitor concentration 1.00 × 10^−04 M
Experimental: as §1, §2, §3

[6] = tested on: recombinant Arabidopsis thaliana ALS variant W574L; format: biochemical; settings: IC50 mutant divided by IC50 sensitive ALS; max inhibitor concentration 1.00 × 10^−04 M
Experimental: as §1, §2, §3

[7] = tested on: recombinant Arabidopsis thaliana ALS variant A205F; format: biochemical; settings: IC50 mutant divided by IC50 sensitive ALS; max inhibitor concentration 1.00 × 10^−04 M
Experimental: as §1, §2, §3

[8] = RP6, herbicide alone, foramsulfuron 29, trifloxysulfuron 27.8, imazaquin 27.5, bispyribac-sodium 70 g ha^−1
[9] = RP6, herbicide with PBO 2100 g ha^−1 applied 60 min prior
[10] = RP6, herbicide with malathion 1000 g ha^−1 applied 60 min prior
[11] = RP7, herbicide alone, foramsulfuron 29, trifloxysulfuron 27.8, imazaquin 27.5, bispyribac-sodium 70 g ha^−1
[12] = RP7, herbicide with PBO 2100 g ha^−1 applied 60 min prior
[13] = RP7, herbicide with malathion 1000 g ha^−1 applied 60 min prior
[14] = herbicide alone, foramsulfuron 29, trifloxysulfuron 27.8, imazaquin 27.5, bispyribac-sodium 70 g ha^−1
[15] = herbicide with PBO 2100 g ha^−1 applied 60 min prior
[16] = herbicide with malathion 1000 g ha^−1 applied 60 min prior

T1 sequence (P17597 86-670): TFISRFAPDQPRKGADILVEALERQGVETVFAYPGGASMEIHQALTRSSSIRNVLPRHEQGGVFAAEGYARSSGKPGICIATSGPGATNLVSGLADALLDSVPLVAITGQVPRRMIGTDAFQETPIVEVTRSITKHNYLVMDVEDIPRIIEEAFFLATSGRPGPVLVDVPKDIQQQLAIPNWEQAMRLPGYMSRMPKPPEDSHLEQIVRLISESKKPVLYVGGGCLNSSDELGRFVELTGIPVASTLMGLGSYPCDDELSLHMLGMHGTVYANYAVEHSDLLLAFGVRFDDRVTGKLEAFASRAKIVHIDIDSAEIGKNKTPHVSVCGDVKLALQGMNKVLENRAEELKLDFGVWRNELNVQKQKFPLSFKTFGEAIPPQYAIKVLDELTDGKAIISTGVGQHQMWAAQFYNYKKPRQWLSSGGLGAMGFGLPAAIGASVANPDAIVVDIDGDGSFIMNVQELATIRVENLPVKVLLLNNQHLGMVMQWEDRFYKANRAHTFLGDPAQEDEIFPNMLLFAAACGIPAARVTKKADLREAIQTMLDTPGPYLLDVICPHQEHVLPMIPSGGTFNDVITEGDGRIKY

Structure (SMILES)	Annual bluegrass control RP6 [3, 8] [%]	Annual bluegrass control RP6 [3, 9] [%]	Annual bluegrass control RP6 [3, 10] [%]	Annual bluegrass control RP7 [3, 11] [%]	Annual bluegrass control RP7 [3, 12] [%]	Annual bluegrass control RP7 [3, 13] [%]	Annual bluegrass control S [3, 14] [%]	Annual bluegrass control S [3, 15] [%]	Annual bluegrass control S [3, 16] [%]	Resistance factor A205V [5]	Resistance factor W574L [6]	Resistance factor A205F [7]	also measured
CCNc1nc(Cl)nc(NCC)n1 [Simazine]	–	–	–	–	–	–	–	–	–	–	–	–	Annual bluegrass biomass RP1 ([1]; RP1, aboveground dry biomass 28 days after treatment, foramsulfuron 29, imazamox 140, simazine 1120 g ha^-1): 124 % of nontreated control; Annual bluegrass control RP1 ([1]; RP1 plants, 28 days after treatment, 2 to 3 leaf stage, foramsulfuron 29, imazamox 140, simazine 1120 g ha^−1): 0%; Annual bluegrass biomass RP2 ([1]; RP2, aboveground dry biomass 28 days after treatment, foramsulfuron 29, imazamox 140, simazine 1120 g ha^-1): 105 % of nontreated control; Annual bluegrass control RP2 ([1]; RP2 plants, 28 days after treatment, 2 to 3 leaf stage, foramsulfuron 29, imazamox 140, simazine 1120 g ha^−1): 0%; Annual bluegrass biomass RP3 ([1]; RP3, aboveground dry biomass 28 days after treatment, foramsulfuron 29, imazamox 140, simazine 1120 g ha^-1): 140 % of nontreated control; Annual bluegrass control RP3 ([1]; RP3 plants, 28 days after treatment, 2 to 3 leaf stage, foramsulfuron 29, imazamox 140, simazine 1120 g ha^−1): 0%; Annual bluegrass biomass RP4 ([1]; RP4, aboveground dry biomass 28 days after treatment, foramsulfuron 29, imazamox 140, simazine 1120 g ha^-1): 95 % of nontreated control; Annual bluegrass control RP4 ([1]; RP4 plants, 28 days after treatment, 2 to 3 leaf stage, foramsulfuron 29, imazamox 140, simazine 1120 g ha^−1): 0%; Annual bluegrass biomass RP5 ([1]; RP5, aboveground dry biomass 28 days after treatment, foramsulfuron 29, imazamox 140, simazine 1120 g ha^-1): 82 % of nontreated control; Annual bluegrass control RP5 ([1]; RP5 plants, 28 days after treatment, 2 to 3 leaf stage, foramsulfuron 29, imazamox 140, simazine 1120 g ha^−1): 0%; Annual bluegrass biomass RP6 ([1]; RP6, aboveground dry biomass 28 days after treatment, foramsulfuron 29, imazamox 140, simazine 1120 g ha^-1): 0 % of nontreated control; Annual bluegrass control RP6 ([1]; RP6 plants, 28 days after treatment, 2 to 3 leaf stage, foramsulfuron 29, imazamox 140, simazine 1120 g ha^−1): 100%; Annual bluegrass biomass RP7 ([1]; RP7, aboveground dry biomass 28 days after treatment, foramsulfuron 29, imazamox 140, simazine 1120 g ha^-1): 99 % of nontreated control; Annual bluegrass control RP7 ([1]; RP7 plants, 28 days after treatment, 2 to 3 leaf stage, foramsulfuron 29, imazamox 140, simazine 1120 g ha^−1): 0%; Annual bluegrass biomass RP8 ([1]; RP8, aboveground dry biomass 28 days after treatment, foramsulfuron 29, imazamox 140, simazine 1120 g ha^-1): 101 % of nontreated control; Annual bluegrass control RP8 ([1]; RP8 plants, 28 days after treatment, 2 to 3 leaf stage, foramsulfuron 29, imazamox 140, simazine 1120 g ha^−1): 0%; Annual bluegrass control S ([1]; susceptible (S) plants, 28 days after treatment, 2 to 3 leaf stage, foramsulfuron 29, imazamox 140, simazine 1120 g ha^−1): 98%; Annual bluegrass biomass S ([1]; susceptible (S), aboveground dry biomass 28 days after treatment, foramsulfuron 29, imazamox 140, simazine 1120 g ha^-1): 5 % of nontreated control; control of POAAN-R3 ([2]; 140 to 9000 g ha^−1): ≤ 20%
COc1cc(OC)nc(NC(=O)NS(=O)(=O)c2ncccc2OCC(F)(F)F)n1 [Trifloxysulfuron]	38	55	49	22	17	28	94	94	92	9	6447	2983	IC50 ([4]; concentration for 50 % inhibition of WT enzyme, max inhibitor concentration 1.00 × 10^−04 M, read-out: WT sensitivity [IC50]): 5.9 nM; control of POAAN-R3 ([2]; rates as high as 223 g ha^−1): ≤ 40%
CC(C)C1(C)N=C(c2nc3ccccc3cc2C(=O)O)NC1=O (stereo not shown) [Imazaquin]	36	24	32	11	9	8	53	71	64	36	65	19	IC50 [4]: 1550 nM
